Laboratory results from a melting point compilation (Tetko et al.; mined from patent text by program, amines drawn as free bases though some values may be those of a salt).

Compound | melting point [°C]
O=C1CC(c2cccc(-n3ccnc3)c2)=Nc2cc(Cl)c(-c3ccc(F)cc3)cc2N1 | 209 to 211
CCOC(=O)C1=C(C)NC(C)=C(C(=O)OCC(F)(F)F)C1c1cccc([N+](=O)[O-])c1 (centres undefined) | 192
CC(=O)NCC1CN(c2ccc(N3CCN(C4N=NC(=O)S4)CC3)c(F)c2)C(=O)O1 (centres undefined) | 173 to 175
CCc1cnc(N2CCN(C(=O)c3ccccc3NC3=c4ccccc4=NCN3c3ccccc3)CC2)nc1 | 204 to 205
O=C1NCc2cc(Br)sc21 | 96 to 97
COCC(NC(C)=O)C(=O)NCc1ccccc1 (centres undefined) | 142 to 143
CN(c1ccc(OCc2ccc(OC(F)(F)F)cc2)cc1)C1CCN(c2ccc(OC[C@H]3CCn4cc([N+](=O)[O-])nc4O3)cc2)CC1 | 142 to 144
COc1cccc(C(=O)Nc2ccccc2C(c2ccc(O)cc2)c2ccc(O)cc2)c1 | 165 to 168
O=C1NC(=S)SC1=Cc1ccc2c(c1)N(CCc1cccc(Cl)c1)C(=O)CO2 | 280 to 282
Nc1ncnc2c1ncn2CC/C=C/P(=O)(O)O | 263 to 266
Cc1ccc(S(=O)(=O)OCCC2COc3cc(Cl)c(Cl)cc3O2)cc1 (centres undefined) | 135 to 138
COC(=O)CCC/C=C(/c1ccc(OC)c(C(=O)OC)c1)c1cc(C)c2oc(=O)n(C)c2c1 | 134 to 135
COc1cccc2[nH]c(C(=O)OCc3ccccc3)cc12 | 162 to 164
Cc1cc2ccccc2nc1-n1cncn1 | 80 to 81
CC1Cc2cc(C(=O)O)ccc2C1=O (centres undefined) | 189 to 194
N#Cc1cc(C2=NOC(c3cc(Cl)cc(Cl)c3)(C(F)(F)F)C2)ccc1-n1cccn1 (centres undefined) | 169 to 176
CC(=O)Nc1ccc(C(=O)c2cc(-c3cccnc3)c(N3CCOCC3)s2)cc1 | 120
CCN(CC)CC1CCCCN1CC(=O)N1c2nc(C)cc(C)c2NC(=O)c2cccc(C)c21 (centres undefined) | 213 to 215
Cc1nc(Nc2nc(N)nc(-c3ccccc3)c2-c2ccc(=O)n(C(C)C)n2)sc1C | 256 to 258

Compound | melting point [°C]
Cc1ccccc1Nc1nc(N(C)c2ccccc2)c2cccc(O)c2n1 | 174 to 175
CC(O)CNc1c(Br)cnc2ccccc12 (centres undefined) | 82 to 83
CCCCc1ncc(/C=C(\Cc2cccs2)C(=O)O)n1Cc1cccc(OC)c1 | 170 to 171
O=C(O)c1ccc(OCCNC(=O)C2Cc3ccccc3N2S(=O)(=O)c2ccc(-c3cccc(C(F)(F)F)c3)cc2)c(F)c1 (centres undefined) | 96 to 104
CC1(C)C=Cc2c(-c3[nH]c4cn[nH]c(=O)c4c3Cl)ccc(OC(F)F)c2O1 | 226 to 234
CN(C(=O)Nc1ccccc1F)C(Cl)C(Cl)(Cl)Cl (centres undefined) | 130 to 141
COc1cc(CN(C)c2ncnc3c(N4CCOCC4)nc(N4CCC(N(C)C)CC4)nc23)cc2ccccc12 | 130
COC(=O)c1cc(Br)n2c1CN(C(=O)OC(C)(C)C)CC2 | 109
N#Cc1c(-c2ccc(Cl)c(Cl)c2)cc(C2CC2)[nH]c1=O | 290 to 295
C#CC1(O)CCC2C3=C(CCC21C)c1ccc(OC)cc1CC3 (centres undefined) | 133 to 137
O=C(CCc1ccccc1)Nc1cc(C(=O)O)ccn1 | 266 to 267
COc1ccc2c3ccnc(C)c3n(CCCc3ccccc3)c2c1 | 117 to 118
O=[N+]([O-])c1ccc2nc(Cl)c(Cc3ccccc3)cc2c1 | 159 to 161
CCOC(=O)C1=C(C)NC(C)=C(C(=O)OCCN2CCN(C(c3ccccc3)c3ccccc3)CC2)C1c1cccc([N+](=O)[O-])c1 (centres undefined) | 80 to 82
CC1c2cc(C(C)(C)C)cc(C(C)(C)C)c2OP(Cl)Oc2c1cc(C(C)(C)C)cc2C(C)(C)C (centres undefined) | 194 to 198
NC(Cc1ccccc1)C(O)C1=NCCS1 (mixture of isomers) | 82.3 to 90
COc1cc(CC(=O)c2c(O)c3cccnc3n(-c3ccccc3)c2=O)cc(OC)c1 | 170 to 171
O=C(O)C1Cc2ccccc2CN1C(=O)c1ccc(Cl)cc1 (centres undefined) | 77 to 79

The next lines start with the values.

melting point [°C] | Compound
107 to 109 | CC(C)C(NC(=O)C(C)(C)C)C(C)C
222 to 224 | O=C(O)COC1(Cl)C=C2ONC(c3ccccc3F)=C2C(Cl)=C1Cl (centres undefined)
205 to 206 | COc1ccccc1CNC(=O)c1c(-c2ccc(C)cc2)c2cccnc2c(=O)n1CCCCO
95 to 97 | COc1ccc(-n2nc(CO)cc2-c2ccc(Cl)cc2)cc1
123 | Cc1cccc(NC(=O)NCC(=O)N2C(C(=O)OC(C)(C)C)CCCC2c2ccccc2)c1 (centres undefined)
125 to 126 | CCCc1c(C(=O)c2ccc(OS(=O)(=O)c3ccc(C)cc3)cc2)c2ccccn2c1C(C)=O
108 | O=C(Cc1ccccc1)c1ccc(OCC(F)(F)F)cc1
118 to 120 | CCOC(=O)C1=Cc2cc(Cl)ccc2N(C)C1C(F)(F)F (centres undefined)
106 to 108 | NCC(=NNc1ccccc1)c1ccccc1
231 to 238 | C=CC[C@H](C(N)=O)[C@@H](CC(C)C)C(=O)NC1N=C(N2CCCCC2)c2ccccc2N(C)C1=O (some centres undefined)
98 to 100 | C=C(F)c1c(C(=O)OC)nc(Cl)c(F)c1N
260 | Oc1cnc2cc(C(F)(F)F)ccc2n1
183 to 186 | CC(C)(C)c1cc(-c2nn(CCC(=O)O)c3ncccc23)cc(C(C)(C)C)c1O
> 300 | O=C1c2ccccc2C(=O)c2c1nc1c(Cl)cccn21
83 | COCCCN1C(=O)CS(=Cc2ccccc2Cl)C1=O (centres undefined)
131 to 133 | CC(C)c1ccc(-n2nc(C(C)(C)C)cc2NC(=O)c2cncc3cc(Oc4cc(N)ncn4)ccc23)cc1

melting point [°C] | Compound
105 to 107 | CC(=O)OCCOCn1cc(C)c(=O)[nH]c1=O
225 to 226 | O=C(c1cccs1)c1cnn2c(-c3csc([N+](=O)[O-])c3)ccnc12
120 to 121 | COc1ccc(CC(=NNS(=O)(=O)c2ccc(C)cc2)c2cc(OC)cc(OC)c2)cc1
295 to 297 | CC(=O)NCCNC1=NS(=O)(=O)c2cc(Cl)ccc2N1
97 to 100 | CC(=O)c1ccc2sc3ccccc3c2c1
100 to 104 | C=CCCCCCCCCC(=O)N1CCN(c2cc(N)nc(N)n2)CC1
245 to 247 | Cc1nc(-c2nn(-c3ccccc3)c(=O)cc2Oc2ccccc2)n[nH]1
192 to 193 | COC(=O)c1[nH]c2cccc(C)c2c1Sc1ccc(Cl)cc1
113 to 115 | CC(C)OC(=O)c1cc(-n2c(=O)c3c(n(C)c2=O)CCCC3)c(F)cc1Cl
166 to 167 | CC(C)(C)OC(=O)N1CCc2c(n(CCO)c3cc(Cl)cc(Cl)c23)CC1
120 to 123 | CN1CCC(=C2c3ccc(F)cc3Sc3ccc(F)cc32)CC1
113 to 115 | COC(=O)N(C)CC#CCn1ccnc1
92 to 93 | Cc1nc(OCCCc2cc(OC(C)C)nn2Cc2ccc(Cl)cc2Cl)c(CC#N)s1
77 to 79 | O=C1C=CC2(C=C1)CC(=O)N2OCc1ccccc1
81 to 82 | C=CCNc1cc(Oc2ccccc2)c(Cl)cc1[N+](=O)[O-]
141 to 143 | CCN(CC)C(=O)/C(=C/C=C/c1cc2ccccc2[nH]1)OC
